Assay [1] deals with T1, enzyme extracted from Corynebacterium striatum A×20 (AMRE, Nα-acyl-glutamine-aminoacylase) (Corynebacterium striatum, UniProt Q8GGD4).
T1 construct: an enzyme may be isolated from cellular extracts obtained from wild-type bacterial strains; endogenous in cells; host or cells: Corynebacterium striatum Ax20 (DSM 14267), mechanically disrupted; crude extract or chromatographically purified enzyme
Put plainly: Substrate specificity of the enzyme (capillary GC of released acid or alcohol). The note with it: 500 ppm in Buffer A, 24 h incubation. It is filed as biochemical. The procedure:
To understand in detail the structural requirements of substrates, the enzyme extracted from Corynebacterium striatum A×20 was incubated with a wide variety of said compounds related to the originally isolated Nα-3-methyl-3-hydroxy-hexanoyl-L-glutamine present in sweat. Each compound was used at a concentration of 500 ppm in Buffer A, and analysis of released acid or alcohol was done by capillary GC after 24 h of incubation. First, different modifications at the N-terminus were tested.

In a further assay the test system is Micrococcus luteus. Put plainly: Cleavage of the natural malodour precursor by axilla isolate Ax9. The note with it: 500 ppm precursor, 24 h, 36° C., capillary GC. It is filed as cell-based. The procedure:
(§1) The axillary flora of 8 panellists was isolated with the detergent-scrub method: A 6 cm^2 area of the axilla was scrubbed with a phosphate buffer at pH 7 containing 1% Tween 80. The samples were spread-plated on tryptic soy agar amended with 5 g/L of Tween 80 and 1 g/L of lecithin. Single isolates obtained after 48 h incubation were subcultured and characterised. A total of 24 individual strains were identified based on colony and cell morphology, gram-reaction, lipophilic growth, lipase reaction and API identification kits (bioMerieux, France; coryneforms with the API coryne kit and cocci with the ID Staph 32 kit). The strains were grown overnight in a liquid medium (Mueller-Hinton amended with 0.01% Tween 80), harvested by centrifugation and resuspended to a final OD600 of 1 in a semi-synthetic medium (Per litre: 3 g KH2PO4, 1.9 g K2HPO4, 0.2 g yeast extract, 0.2 g MgSO4, 1.4 g NaCl, 1 g NH4Cl, 10 mg MnCl2, 1 mg Fe3Cl2, 1 mg CaCl2). Aliquots of this stationary culture were then amended with a final concentration of 500 ppm of Nα-3-hydroxy-3-methyl-hexanoyl-L-glutamine (5% stock solution dissolved in methanol). After 24 h incubation (with shaking at 300 rpm; 36° C.) the samples were extracted and the amount of released 3-hydroxy-3-methyl-hexanoic acid was determined by capillary GC. […]

Another assay deals with Corynebacterium striatum. Put plainly: Cleavage of the natural malodour precursor by axilla isolate Ax20. It is filed as cell-based. The settings on record: 500 ppm precursor, 24 h, 36° C., capillary GC. The procedure:
as §1

A further assay has as its system Corynebacterium group G. The assay is described as follows: Cleavage of the natural malodour precursor by axilla isolate Ax7. It is filed as cell-based. The note with it: 500 ppm precursor, 24 h, 36° C., capillary GC. Here is the method: as §1
Assay [2] relates to Corynebacterium jeikeium. Put plainly: Cleavage of the natural malodour precursor by axilla isolate Ax19. It is filed as cell-based. The settings on record: 500 ppm precursor, 24 h, 36° C., capillary GC. Here is the method: as §1
For the next assay, the system named is Staphylococcus capitis. The assay is described as follows: Cleavage of the natural malodour precursor by axilla isolate Ax1. It is filed as cell-based. The settings on record: 500 ppm precursor, 24 h, 36° C., capillary GC. Here is the method:
as §1

The test system of assay [3] is Staphylococcus epidermidis. Put plainly: Cleavage of the natural malodour precursor by axilla isolate Ax6. The settings on record: 500 ppm precursor, 24 h, 36° C., capillary GC. It is filed as cell-based. The procedure:
as §1

In assay [4] the test system is Corynebacterium jeikeium. Put plainly: Cleavage of the natural malodour precursor by axilla isolate Ax15. It is filed as cell-based. The note with it: 500 ppm precursor, 24 h, 36° C., capillary GC. The procedure:
as §1

Another assay relates to Corynebacterium bovis. Put plainly: Cleavage of the natural malodour precursor by axilla isolate Ax3. It is filed as cell-based. The settings on record: 500 ppm precursor, 24 h, 36° C., capillary GC. The procedure:
as §1

T1 sequence (Q8GGD4 2-400): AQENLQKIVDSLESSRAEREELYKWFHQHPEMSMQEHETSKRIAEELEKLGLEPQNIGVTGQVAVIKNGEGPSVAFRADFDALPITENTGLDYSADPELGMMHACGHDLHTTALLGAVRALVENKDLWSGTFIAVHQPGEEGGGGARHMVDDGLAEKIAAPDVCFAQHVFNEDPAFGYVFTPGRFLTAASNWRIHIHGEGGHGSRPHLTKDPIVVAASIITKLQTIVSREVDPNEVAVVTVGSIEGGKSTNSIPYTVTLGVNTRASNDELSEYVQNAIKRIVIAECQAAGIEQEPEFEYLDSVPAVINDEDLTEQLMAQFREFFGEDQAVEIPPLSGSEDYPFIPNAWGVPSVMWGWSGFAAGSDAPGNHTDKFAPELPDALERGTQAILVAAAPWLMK

Regarding `CCCC(C)(O)CC(=O)N[C@@H](CCC(N)=O)C(=O)O` (stereo partly drawn) [compound 1, Nα-(3-hydroxy-3-methyl-hexanoyl)-L-glutamine], the Cleavage by enzyme entry in assay [1] was “++ (++ cleavage 10–50%)”. The 3-hydroxy-3-methyl-hexanoic acid released was found to be 0 ppm with Micrococcus luteus; 262.7 ppm in the assay with Corynebacterium striatum; 0 ppm in the assay with Corynebacterium group G; 105.1 ppm in the assay on Corynebacterium jeikeium [2]; 0 ppm in the assay on Staphylococcus capitis; 0 ppm in [3]. In addition, the results for the 3-hydroxy-3-methyl-hexanoic acid released in the assay on Corynebacterium jeikeium [4] and in the assay on Corynebacterium bovis were 37.4 ppm and 0 ppm, respectively.
